# Source: US7632840B2, “Quinazoline compounds for the treatment of hyperproliferative disorders” (AstraZeneca AB, priority 2004, dated 2009)
# Key:
# KB cells = experiment: EGFR driven KB cell proliferation assay, Test (b); assay type: cell-based; conditions: Homo sapiens
# Experimental: Following adhesion to the plate, the cells are treated with or without EGF (final concentration of 1 ng/ml) and with or without compound at a range of concentrations in dimethylsulfoxide (DMSO) (0.1% final) before incubation for 4 days. […] MTT solution was then tipped off, the plate gently tapped dry and the cells dissolved upon the addition of 100 μl of DMSO.
# Absorbance of the solubilised cells was read at 540 nm using a Molecular Devices ThermoMax microplate reader. Inhibition of proliferation was expressed as an IC50 value. […] The range of proliferation was calculated from the positive (vehicle plus EGF) and negative (vehicle minus EGF) control values.
# EGFR tyrosine kinase = molecular target: T1, EGFR tyrosine kinase (Homo sapiens, UniProt P00533); experiment: Protein tyrosine kinase phosphorylation assay, Test (a); assay type: biochemical; conditions: read-out: 1C50 (nM) Test (a) (Inhibition of EGFR tyrosine kinase protein phosphorylation)
# T1 construct: Recombinant intracellular fragments of EGFR, erbB2 and erbB4; made in house; host or cells: baculovirus/Sf21 insect cells (cleared lysate used)
# T1 sequence (P00533 669-1210 limits assumed): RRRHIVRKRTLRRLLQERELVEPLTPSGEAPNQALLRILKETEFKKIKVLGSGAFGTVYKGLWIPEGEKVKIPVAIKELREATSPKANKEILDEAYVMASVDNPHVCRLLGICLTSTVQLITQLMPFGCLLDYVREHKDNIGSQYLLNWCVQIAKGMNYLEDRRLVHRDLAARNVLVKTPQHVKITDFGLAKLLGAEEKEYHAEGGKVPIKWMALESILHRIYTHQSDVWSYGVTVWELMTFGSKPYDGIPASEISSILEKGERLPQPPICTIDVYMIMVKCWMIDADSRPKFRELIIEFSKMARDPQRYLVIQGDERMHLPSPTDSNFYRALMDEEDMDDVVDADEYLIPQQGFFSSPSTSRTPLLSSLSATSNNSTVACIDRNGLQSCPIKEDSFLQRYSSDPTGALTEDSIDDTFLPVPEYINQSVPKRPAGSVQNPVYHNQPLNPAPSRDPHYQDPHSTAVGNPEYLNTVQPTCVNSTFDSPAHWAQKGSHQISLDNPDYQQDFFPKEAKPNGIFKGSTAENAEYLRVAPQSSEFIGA
# Experimental: Recombinant intracellular fragments of EGFR, erbB2 and erbB4 (accession numbers X00588, X03363 and L07868 respectively) were cloned and expressed in the baculovirus/Sf21 system. Lysates were prepared from these cells by treatment with ice-cold lysis buffer (20 mM N-2-hydroxyethylpiperizine-N′-2-ethanesulfonic acid (HEPES) pH7.5, 150 mM NaCl, 10% glycerol, 1% Triton X-100, 1.5 mM MgCl2, 1 mM ethylene glycol-bis(β-aminoethyl ether) N′,N′,N′,N′-tetraacetic acid (EGTA), plus protease inhibitors and then cleared by centrifugation.
# Constitutive kinase activity of these recombinant proteins was determined by their ability to phosphorylate a synthetic peptide (made up of a random co-polymer of Glutamic Acid, Alanine and Tyrosine in the ratio of 6:3:1). […]
# The immobilised phospho-peptide product of the reaction was detected by immunological methods. […] After further washing, HRP activity in each well of the plate was measured colorimetrically using 22′-Azino-di-[3-ethylbenzthiazoline sulfonate (6)] diammonium salt crystals (ABTS™ from Roche) as a substrate.
# Kinase inhibition for a given compound was expressed as an IC50 value. […] The range of phosphorylation was calculated from the positive (vehicle plus ATP) and negative (vehicle minus ATP) control values.
structure (smiles),measurement,setting,value
"COc1cc2ncnc(Nc3cccc(Cl)c3F)c2cc1CN(C)C1(C(N)=O)CCN(S(C)(=O)=O)CC1 [Example 66, 4-[({4-[(3-chloro-2-fluorophenyl)amino]-7-methoxyquinazolin-6-yl}methyl)(methyl)amino]-1-(methylsulfonyl)piperidine-4-carboxamide]",IC50,KB cells,91 nM
"CNC(=O)C1(N(C)Cc2cc3c(Nc4cccc(Cl)c4F)ncnc3cc2OC)CCN(C)CC1 [Example 20, 4-[({4-[(3-chloro-2-fluorophenyl)amino]-7-methoxyquinazolin-6-yl}methyl)(methyl)amino]-N,1-dimethylpiperidine-4-carboxamide]",IC50,KB cells,36 nM
same,IC50,EGFR tyrosine kinase,17 nM
